Test results from PubChem BioAssay (NCI).
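Following 48 hours of exposure in 96-well plates, responses at five concentrations were used to interpolate endpoints linearly. GI50: concentration for 50% inhibition of growth. At the TGI there is no net growth.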

Experiments:
Test in all cases: NCI-60 cell line screen, 48 h
OVCAR-8 ovarian = test system: OVCAR-8 ovarian
SF-268 CNS = test system: SF-268 CNS
UACC-257 melanoma = test system: UACC-257 melanoma
HCC-2998 colon = test system: HCC-2998 colon
A498 renal = test system: A498 renal
DU-145 prostate = test system: DU-145 prostate
EKVX NSCLC = test system: EKVX NSCLC
COLO 205 colon = test system: COLO 205 colon
RPMI-8226 leukemia = test system: RPMI-8226 leukemia
HOP-92 NSCLC = test system: HOP-92 NSCLC

| Structure (SMILES) | GI50 (OVCAR-8 ovarian) | TGI (OVCAR-8 ovarian) | GI50 (SF-268 CNS) | TGI (SF-268 CNS) | GI50 (UACC-257 melanoma) | TGI (UACC-257 melanoma) | GI50 (HCC-2998 colon) | TGI (HCC-2998 colon) | GI50 (A498 renal) | TGI (A498 renal) | GI50 (DU-145 prostate) | TGI (DU-145 prostate) | GI50 (EKVX NSCLC) | TGI (EKVX NSCLC) | GI50 (COLO 205 colon) | TGI (COLO 205 colon) | GI50 (RPMI-8226 leukemia) | TGI (RPMI-8226 leukemia) | TGI (HOP-92 NSCLC) | GI50 (HOP-92 NSCLC) |
| --- | --- | --- | --- | --- | --- | --- | --- | --- | --- | --- | --- | --- | --- | --- | --- | --- | --- | --- | --- | --- |
| CCn1c(-c2nonc2N)nc2c(C#CC(C)(C)O)nc(OC[C@@H](N)c3ccccc3)cc21 | 4.45 µM | 8.83 µM | 5.04 µM | 9.22 µM | 5.67 µM | 9.83 µM | 4.31 µM | 8.14 µM | 2200 nM | 12.4 µM | 4.45 µM | 8.85 µM | 10.4 µM | 22.4 µM | 4.68 µM | 8.31 µM | 6.51 µM | 15.5 µM | – | – |
| Cc1ccc(/C=C/C(=O)c2cccc3ccccc23)cc1 | – | 29 µM | – | 33.1 µM | – | 33.7 µM | – | 37.7 µM | – | 27.4 µM | – | – | – | 34 µM | – | 56.4 µM | – | > 100 µM | – | – |
| CC(=O)OCCOCNC(=S)N/N=C(\C)c1cnccn1 | – | > 100 µM | – | > 100 µM | – | > 100 µM | – | > 100 µM | – | > 100 µM | – | – | – | > 100 µM | – | > 100 µM | – | > 100 µM | – | – |
| O=c1c(-c2ccccc2)c2oc(c1-c1ccccc1)CSCc1cccc(c1)CSC2 | – | > 100 µM | – | 85.2 µM | – | > 100 µM | – | > 100 µM | – | 69.6 µM | – | – | – | > 100 µM | – | > 100 µM | – | > 100 µM | > 100 µM | – |
| C/C(CCn1[nH]c(=O)ccc1=O)=N\NC(=O)C(=O)NN | – | > 100 µM | – | > 100 µM | – | > 100 µM | – | > 100 µM | – | > 100 µM | – | – | – | > 100 µM | – | > 100 µM | – | > 100 µM | – | – |
| COc1nc(NC2OC(COC(C)=O)C(OC(C)=O)C(OC(C)=O)C2OC(C)=O)c2c(OC(C)=O)cc(=O)oc2n1 (stereo not given) | – | > 100 µM | – | – | – | > 100 µM | – | > 100 µM | – | 30.2 µM | – | – | – | > 100 µM | – | > 100 µM | – | > 100 µM | > 100 µM | – |
| Cc1ccc(/C=C/C(=O)CCN(C)C)cc1 | – | 62.2 µM | – | 47.5 µM | – | 31 µM | – | 32.1 µM | – | > 100 µM | – | – | – | – | – | 29.4 µM | – | > 100 µM | 38.1 µM | – |
| CC(=O)NNc1nc(C)c(C(=O)/C=C/c2ccc(NC(C)=O)cc2)s1 | – | > 100 µM | – | > 100 µM | – | > 100 µM | – | > 100 µM | – | > 100 µM | – | – | – | > 100 µM | – | > 100 µM | – | > 100 µM | > 100 µM | – |
| O=C(Oc1ccc(Cl)cc1)c1ccccc1Nc1ccnc(C(F)(F)F)c1 | 4.04 µM | 35.5 µM | 4.32 µM | 17.4 µM | 4.51 µM | 24.4 µM | 13.6 µM | 27.6 µM | – | – | 18.7 µM | 39.8 µM | 25.2 µM | 64 µM | – | – | 2.87 µM | 8.28 µM | > 100 µM | 20.8 µM |
| CC(=O)O/N=C(/C)c1ccccc1O | – | > 100 µM | – | > 100 µM | – | > 100 µM | – | > 100 µM | – | – | – | – | – | > 100 µM | – | > 100 µM | – | > 100 µM | – | – |
| Oc1[nH]c2ccccc2c1N=Nc1nc(-c2ccc(Br)cc2)cs1 | – | 35.8 µM | – | 46.8 µM | – | 66.1 µM | – | > 100 µM | – | – | – | 68 µM | – | 30.4 µM | – | 79.1 µM | – | – | 31.7 µM | – |
| S=c1sc2c(n1-c1ccccc1)NC=NC2S (stereo not given) | – | > 100 µM | – | > 100 µM | – | > 100 µM | – | > 100 µM | – | – | – | – | – | > 100 µM | – | > 100 µM | – | > 100 µM | 71.1 µM | – |
